Publication PMC10689823, “Discovery of a Drug-like, Natural Product-Inspired DCAF11 Ligand Chemotype” (Nature Communications, 2023)
Values joined by “and” are separate entries in the source; they are usually repeats but may differ in a detail not shown here. Identical values can stand only once.

Assays:
Type in all cases: cell-based
[1] = molecular target: T1, BRD2 (Homo sapiens, UniProt P25440); assay: BRD2 levels by Western blot in KBM7 cells (WT, DCAF11 knockout, DDB1 knockout); design: endogenous in cells; host or cells: KBM7 (WT, DCAF11 KO, DDB1 KO); details: 9 at 3 μM, 10 at 10 μM, 11 at 10 μM; 6 h
Method: (§1) Cells were washed with PBS and lysed in lysis buffer (50 mM Tris-HCl, pH 7.4, 150 mM NaCl, 1% Triton X-100, 1% sodium deoxycholate, 0.1% SDS) with complete protease inhibitor cocktail (Roche, 11836170001) for 30 min on ice. For Ramos cells, cell pellets were lysed in lysis buffer (50 mM Tris-HCl, pH 8, 150 mM NaCl, 1% NP-40, 0.5% sodium deoxycholate) with complete protease inhibitor cocktail. After centrifugation at 16,000 x g, the supernatant was transferred into a new tube and the protein concentration was determined by DC protein assay (BIO-RAD, 5000116). Proteins were separated by SDS-PAGE and transferred to a PVDF membrane (Thermo scientific, 0.45 μm, 88518). For PDEδ, BRD2, GAPDH, BRD4, Vinculin and BTK, the membranes were blocked with Intercept® Blocking Buffer (LI-COR Biosciences, 927-70001) at room temperature for 1 h. The primary antibodies for these proteins were diluted with Intercept® Blocking Buffer (1:500 for PDEδ, 1:3000 for Vinculin, and 1:1000 for other proteins) and incubated with the membranes overnight at 4 °C. Membranes were washed with PBS + 0.1% Tween 20 (PBS-T) five times and incubated with secondary antibodies conjugated to IRDye® Infrared Fluorescent Dyes (1:5000, LI-COR Biosciences) at room temperature for 1 h with protection from light. After washing the membrane, signals were visualized using the ChemiDoc MP Imaging System (BIO-RAD Laboratories). For detection of LC3B, BRD3, BLK, DCAF11, DDB1 RBX1, FIP200, V5- and FLAG-Tag the membranes were blocked with 5% milk in PBS-T at room temperature for 1 h. The primary antibodies for these proteins were diluted in 5% milk in PBS-T buffer (1:200 for BRD3, 1:1000 for other proteins) and incubated with the membranes overnight at 4 °C. Membranes were washed with PBS-T five times and incubated with HRP secondary antibodies (1:1500) at room temperature for 1 h. After washing the membrane, protein detection was performed using Western blotting detection reagent (Thermo Scientific, 34095) and the ChemiDoc MP Imaging System (BIO-RAD). Relative band intensities were quantified using Image Lab (BIO-RAD).
DCAF11- or FIP200 (RB1CC1)-targeting sgRNAs were lentivirally packaged using PEI transfection of Lenti-X cells. The viral supernatant was harvested after 72 h, cleared of cellular debris by filtration through a 0.45-µm PES filter and stored in aliquots at −80 °C. The appropriate amount of viral supernatant was transduced into KBM7 cells (1 × 10^6 cells/mL) via spinfection (2000 rpm, 1 h, 37 °C) with polybrene (8 µg/mL). Two days post transduction, the cells were selected with puromycin (1 µg/mL) for a total of 5 days, after which the knockout pools were validated via western blotting.

[2] = molecular target: T1, BRD2; assay: BRD2 levels by Western blot in Jurkat cells; design: endogenous in cells; host or cells: Jurkat; Hep G2; MDA-MB-231; KBM7 (WT, DCAF11 KO, DDB1 KO)
Method: as §1

[3] = molecular target: PDEδ (Homo sapiens, UniProt O43924); assay: PDEδ levels by Western blot in Jurkat cells; design: endogenous in cells; host or cells: Jurkat; details: 6 h; for PDEδ degradation activity compared with degrader 5: 10 μM
[4] = tested on: Jurkat cells; assay: Cell viability assay (CellTiter-Glo) in Jurkat cells; details: for Relative cell viability (%): Jurkat cells, 72 h, Fig. 4k; for Cell viability (%) relative to DMSO: individual replicates, Supplementary Fig. 7g
Method: (§2) Jurkat cells (3 × 10^3) and Hep G2 cells (3.5 × 10^3) were seeded in 96-well plates in 100 μL culture medium. Cells were treated with compounds dissolved in 50 μl medium at the indicated concentration for 72 h, at the same time, one plate of cells without compounds treatment was used for the cell count at time zero. After adding 40 μl of CellTiter-Glo® reagent (Promega, G7571) to each well for 10 min at room temperature, the luminescence was measured on a Spark® Multimode Microplate Reader (Tecan). The data was analyzed by the GraphPad Prism 9.0.

[5] = as above; details: human, Jurkat cells
Method: as §2

T1 sequence (P25440 whole entry): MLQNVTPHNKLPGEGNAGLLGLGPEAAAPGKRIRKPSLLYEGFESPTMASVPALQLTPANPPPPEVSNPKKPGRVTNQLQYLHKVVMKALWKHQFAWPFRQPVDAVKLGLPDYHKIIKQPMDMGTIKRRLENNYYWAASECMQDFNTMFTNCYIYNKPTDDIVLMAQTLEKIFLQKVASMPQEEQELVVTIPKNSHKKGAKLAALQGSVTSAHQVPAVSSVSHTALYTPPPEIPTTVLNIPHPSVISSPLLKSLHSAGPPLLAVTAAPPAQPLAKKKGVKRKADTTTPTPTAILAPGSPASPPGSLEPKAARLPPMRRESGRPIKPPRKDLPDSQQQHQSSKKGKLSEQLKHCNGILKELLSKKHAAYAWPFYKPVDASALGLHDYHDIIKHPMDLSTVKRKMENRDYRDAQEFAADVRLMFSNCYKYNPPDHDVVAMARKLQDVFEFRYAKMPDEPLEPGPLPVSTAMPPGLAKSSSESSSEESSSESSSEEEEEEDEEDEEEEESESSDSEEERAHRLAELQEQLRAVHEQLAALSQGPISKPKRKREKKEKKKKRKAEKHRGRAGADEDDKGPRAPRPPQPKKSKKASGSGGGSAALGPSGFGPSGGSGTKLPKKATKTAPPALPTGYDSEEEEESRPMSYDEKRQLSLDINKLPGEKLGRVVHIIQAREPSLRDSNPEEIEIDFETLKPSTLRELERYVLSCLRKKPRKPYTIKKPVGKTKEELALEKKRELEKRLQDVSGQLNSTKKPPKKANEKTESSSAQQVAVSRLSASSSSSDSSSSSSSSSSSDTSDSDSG
Sequence of PDEδ (O43924 whole entry): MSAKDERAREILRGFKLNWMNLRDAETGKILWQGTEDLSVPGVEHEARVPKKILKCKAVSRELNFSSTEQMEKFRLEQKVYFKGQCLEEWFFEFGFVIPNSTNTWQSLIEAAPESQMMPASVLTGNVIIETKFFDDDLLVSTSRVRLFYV

Compound: Cc1sc2c(c1C)C(c1ccc(Cl)cc1)=N[C@@H](CC(=O)NCCOCCOCCOCCOc1c(Br)cc(/C=C3\C(=O)Nc4ccc(I)cc43)cc1Br)c1nnc(C)n1-2 [Compound 11]
- BRD2 degradation in DCAF11 knockout (KO1 and KO2) KBM7 cells [1]: abolished
- efficiency of BRD2 degradation, 10 versus iodo analog 11 ([2]; 6 h): comparable efficiency of BRD2 degradation

Compound: Cc1ccc(-n2nc3c(=O)n(CCCC(=O)NCCc4ccc(C(=O)NCCOCCOCCOCCOc5c(Br)cc(C=C6C(=O)N(c7ccccc7)c7ccccc76)cc5Br)cc4)nc(C)c3c2C)cc1 [Compound 55]
- PDEδ degradation activity compared with degrader 5 [3]: comparable or better degradation activity
- completeness of PDEδ degradation [3]: did not induce complete degradation

Compound: Cc1sc2c(c1C)C(c1ccc(Cl)cc1)=NC(CC(=O)NCCOCCOCCOCCOc1c(Br)cc(C=C3C(=O)N(c4ccccc4)c4ccccc43)cc1Br)c1nnc(C)n1-2 (stereo not drawn) [Compound 49]
- remaining activity at 3 µM ([2]; Jurkat, 6 h, 3 μM, 6 h, Fig. 4j, read-out: BRD2/Vinculin intensity (relative to DMSO control group)): 12.6%

Compound: Cc1sc2c(c1C)C(c1ccc(Cl)cc1)=N[C@@H](CC(=O)OC(C)(C)C)c1nnc(C)n1-2 [JQ1, reference compound]
- Relative cell viability (%) ([4]; 10 nM, 0.01 µM): 100.371% and 106.106%
- Relative cell viability (%) ([4]; 30 nM, 0.03 µM): 87.8283% and 96.2473%
- Relative cell viability (%) ([4]; 100 nM, 0.1 µM): 64.4714% and 60.7516%
- Relative cell viability (%) ([4]; 300 nM, 0.3 µM): 45.1617% and 37.3276%
- Relative cell viability (%) ([4]; 1000 nM, 1 µM): 18.9902% and 17.7354%
- Relative cell viability (%) ([4]; 3000 nM, 3 µM): 9.435% and 7.082%
- Relative cell viability (%) ([4]; 10000 nM, 10 µM): 4.364% and 3.464%
- Relative cell viability (%) ([4]; 30000 nM, 30 µM): 1.255% and 1.237%
- Cell viability (%) relative to DMSO ([4]; concentration 10 nmol/L): 103.479% and 107.527%
- Cell viability (%) relative to DMSO ([4]; concentration 30 nmol/L): 101.884% and 107.914%
- Cell viability (%) relative to DMSO ([4]; concentration 100 nmol/L): 89.9727% and 100.534%
- Cell viability (%) relative to DMSO ([4]; concentration 300 nmol/L): 75.4252% and 84.9435%
- Cell viability (%) relative to DMSO ([4]; concentration 1000 nmol/L): 55.019% and 62.5193%
- Cell viability (%) relative to DMSO ([4]; concentration 3000 nmol/L): 46.7418% and 50.7086%
- Cell viability (%) relative to DMSO ([4]; concentration 10000 nmol/L): 42.9072% and 46.8783%
- Cell viability (%) relative to DMSO ([4]; concentration 30000 nmol/L): 37.1426% and 41.0159%
- viability at 72 h, 10 nmol/L ([5]; concentration 10 nmol/L, individual replicates, Supplementary Fig. 7g, read-out: Cell viability (%) relative to DMSO): 94.3%
- viability at 72 h, 30 nmol/L ([5]; concentration 30 nmol/L, individual replicates, Supplementary Fig. 7g, read-out: Cell viability (%) relative to DMSO): 90.8%
- viability at 72 h, 100 nmol/L ([5]; concentration 100 nmol/L, individual replicates, Supplementary Fig. 7g, read-out: Cell viability (%) relative to DMSO): 82.6%
- viability at 72 h, 300 nmol/L ([5]; concentration 300 nmol/L, individual replicates, Supplementary Fig. 7g, read-out: Cell viability (%) relative to DMSO): 69%
- viability at 72 h, 1000 nmol/L ([5]; concentration 1000 nmol/L, individual replicates, Supplementary Fig. 7g, read-out: Cell viability (%) relative to DMSO): 54.6%
- viability at 72 h, 3000 nmol/L ([5]; concentration 3000 nmol/L, individual replicates, Supplementary Fig. 7g, read-out: Cell viability (%) relative to DMSO): 46%
- viability at 72 h, 10000 nmol/L ([5]; concentration 10000 nmol/L, individual replicates, Supplementary Fig. 7g, read-out: Cell viability (%) relative to DMSO): 46.5%
- viability at 72 h, 30000 nmol/L ([5]; concentration 30000 nmol/L, individual replicates, Supplementary Fig. 7g, read-out: Cell viability (%) relative to DMSO): 40.9%
- viability at 72 h, 0.01 µM ([5]; 72 h, 10 nM, Fig. 4k, read-out: Relative cell viability (%)): 89.4%
- viability at 72 h, 0.03 µM ([5]; 72 h, 30 nM, Fig. 4k, read-out: Relative cell viability (%)): 77.8%
- viability at 72 h, 0.1 µM ([5]; 72 h, 100 nM, Fig. 4k, read-out: Relative cell viability (%)): 52.1%
- viability at 72 h, 0.3 µM ([5]; 72 h, 300 nM, Fig. 4k, read-out: Relative cell viability (%)): 35%
- viability at 72 h, 1 µM ([5]; 72 h, 1000 nM, Fig. 4k, read-out: Relative cell viability (%)): 18.1%
- viability at 72 h, 3 µM ([5]; 72 h, 3000 nM, Fig. 4k, read-out: Relative cell viability (%)): 8.86%
- viability at 72 h, 10 µM ([5]; 72 h, 10000 nM, Fig. 4k, read-out: Relative cell viability (%)): 4.59%
- viability at 72 h, 30 µM ([5]; 72 h, 30000 nM, Fig. 4k, read-out: Relative cell viability (%)): 1.85%
- BRD2 protein levels, ligands alone or in combination ([2]; 3 μM, 4 h): did not reduce BRD2 protein levels

Compound: Cc1ccc(-n2nc3c(=O)n(CCCC(=O)NCCc4ccc(C(=O)NCCOCCOCCOCCOc5c(Br)cc(C=C6C(=O)Nc7cc(Br)ccc76)cc5Br)cc4)nc(C)c3c2C)cc1 [Compound 54]
- PDEδ degradation activity compared with degrader 5 [3]: comparable or better degradation activity
- completeness of PDEδ degradation [3]: did not induce complete degradation

Compound: Cc1ccc(-n2nc3c(=O)n(CCCC(=O)NCCc4ccc(C(=O)NCCOCCOCCOCCOc5c(Br)cc(/C=C6\C(=O)Nc7ccc(I)cc76)cc5Br)cc4)nc(C)c3c2C)cc1 [Compound 6, (Z)-N-(2-(2-(2-(2-(2,6-dibromo-4-((5-iodo-2-oxoindolin-3-ylidene)methyl)phenoxy)ethoxy)ethoxy)ethoxy)ethyl)-4-(2-(4-(3,4-dimethyl-7-oxo-2-(p-tolyl)-2,7-dihydro-6H-pyrazolo[3,4-d]pyridazin-6-yl)butanamido)ethyl)benzamide]
- remaining activity at 10 µM ([3]; Jurkat, DMSO pretreatment 2 h, then 10 μM, 6h, Fig. 1h, read-out: PDEδ/Vinculin intensity (relative to DMSO control group)): 55.4%

Compound: Cc1ncsc1-c1ccc(CNC(=O)[C@@H]2C[C@@H](O)CN2C(=O)[C@@H](NC(=O)COCCOCCOCCNC(=O)C[C@@H]2N=C(c3ccc(Cl)cc3)c3c(sc(C)c3C)-n3c(C)nnc32)C(C)(C)C)cc1 [MZ1, reference compound]
- BRD2 levels after washout ([2]; 10 μM, 5 h prior to washout): can be washed out
